According to ChEMBL document CHEMBL1128634, “Piperidine-ether based hNK1 antagonists 2: Investigation of the effect of N-substitution” (Bioorg Med Chem Lett, 1995):
Blank lines part the entries; values can stand above or below the compound they belong to.

Tests used:
[1] = pKa value of the compound; assay type: physicochemical
[2] = Inhibition of [3H]diltiazem binding to L-type calcium channel of rabbit skeletal muscle at 30 uM; assay type: functional; details: Oryctolagus cuniculus, Muscle tissue
[3] = Inhibition of [3H]diltiazem binding to L-type calcium channel of rabbit skeletal muscle; assay type: functional, tissue-based, Oryctolagus cuniculus, Muscle tissue
Substance-K receptor = target: T1, Substance-K receptor (Homo sapiens, UniProt P21452); assay: Tested for inhibition of human Neurokinin Tachykinin receptor 2.
T1 sequence (P21452 whole entry): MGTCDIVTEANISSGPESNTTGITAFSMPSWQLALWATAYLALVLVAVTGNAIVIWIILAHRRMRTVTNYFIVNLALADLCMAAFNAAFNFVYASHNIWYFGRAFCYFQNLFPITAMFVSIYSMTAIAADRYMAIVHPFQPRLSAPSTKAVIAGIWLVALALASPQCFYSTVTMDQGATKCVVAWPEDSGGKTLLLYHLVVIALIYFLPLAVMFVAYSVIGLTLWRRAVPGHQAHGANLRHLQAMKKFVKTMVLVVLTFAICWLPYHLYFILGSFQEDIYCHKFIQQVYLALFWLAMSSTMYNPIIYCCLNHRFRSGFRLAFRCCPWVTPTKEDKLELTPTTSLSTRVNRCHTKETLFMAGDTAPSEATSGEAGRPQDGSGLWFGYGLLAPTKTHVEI

Substance-P receptor = Substance-P receptor (Homo sapiens, UniProt P25103); assay: Displacement of [125I]- Substance P from human Neurokinin 1 (hNK1) receptor expressed in CHO cells; assay type: cell-based
Sequence of Substance-P receptor (P25103 whole entry): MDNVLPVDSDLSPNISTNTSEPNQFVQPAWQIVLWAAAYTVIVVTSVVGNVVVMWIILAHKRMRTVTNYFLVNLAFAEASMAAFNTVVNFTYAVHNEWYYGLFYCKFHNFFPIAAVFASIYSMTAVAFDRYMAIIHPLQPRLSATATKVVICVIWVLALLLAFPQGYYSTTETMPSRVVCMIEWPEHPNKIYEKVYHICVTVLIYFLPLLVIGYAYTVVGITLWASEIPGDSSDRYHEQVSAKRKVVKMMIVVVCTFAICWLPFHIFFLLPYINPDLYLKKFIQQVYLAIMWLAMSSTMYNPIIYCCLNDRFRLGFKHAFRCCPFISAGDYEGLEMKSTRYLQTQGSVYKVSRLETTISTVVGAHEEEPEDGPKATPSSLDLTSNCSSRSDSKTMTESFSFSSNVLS

Neuromedin-K receptor = target: T2, Neuromedin-K receptor (Homo sapiens, UniProt P29371); assay: Tested for inhibition of human Tachykinin receptor 3
T2 sequence (P29371 whole entry): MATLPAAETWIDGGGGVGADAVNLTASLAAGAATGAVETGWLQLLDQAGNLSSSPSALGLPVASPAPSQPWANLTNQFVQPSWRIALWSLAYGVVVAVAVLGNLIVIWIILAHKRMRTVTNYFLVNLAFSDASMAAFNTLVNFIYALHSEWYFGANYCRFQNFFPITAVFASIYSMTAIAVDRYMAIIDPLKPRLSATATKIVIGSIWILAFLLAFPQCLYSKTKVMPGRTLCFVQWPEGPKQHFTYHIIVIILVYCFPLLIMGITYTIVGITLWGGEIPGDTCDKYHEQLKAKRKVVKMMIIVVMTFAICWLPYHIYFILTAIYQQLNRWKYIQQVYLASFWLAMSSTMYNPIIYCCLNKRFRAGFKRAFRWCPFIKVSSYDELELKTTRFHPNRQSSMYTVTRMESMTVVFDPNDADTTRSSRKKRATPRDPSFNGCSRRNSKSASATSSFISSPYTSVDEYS

[4] = Inhibition of [3H]diltiazem binding to L-type calcium channel of rabbit skeletal muscle at 5 uM; assay type: functional; details: Oryctolagus cuniculus, Muscle tissue

pKa [1]: 5.4
SMILES: NC(=O)CN1CCC[C@H](OCc2cc(C(F)(F)F)cc(C(F)(F)F)c2)[C@@H]1c1ccccc1
inhibition at 30 µM [2]: 16%

IC50 [3]: 760 nM | IC50 (Substance-K receptor): > 1000 nM | IC50 (Substance-P receptor): 0.87 nM | IC50 (Neuromedin-K receptor): > 1000 nM
SMILES: FC(F)(F)c1cc(CO[C@H]2CCCN[C@H]2c2ccccc2)cc(C(F)(F)F)c1

SMILES: O=C(O)CN1CCC[C@H](OCc2cc(C(F)(F)F)cc(C(F)(F)F)c2)[C@@H]1c1ccccc1
inhibition at 5 µM [4]: 7%

SMILES: COC(=O)C(=O)N1CCC[C@H](OCc2cc(C(F)(F)F)cc(C(F)(F)F)c2)[C@@H]1c1ccccc1
inhibition at 5 µM [4]: 0%

IC50 [3]: 720 nM
SMILES: CN1CCC[C@H](OCc2cc(C(F)(F)F)cc(C(F)(F)F)c2)[C@@H]1c1ccccc1

SMILES: CNC(=O)CN1CCC[C@H](OCc2cc(C(F)(F)F)cc(C(F)(F)F)c2)[C@@H]1c1ccccc1
inhibition at 5 µM [4]: 0%

IC50 (Substance-P receptor): 25 nM
SMILES: NC(=O)C(=O)N1CCC[C@H](OCc2cc(C(F)(F)F)cc(C(F)(F)F)c2)[C@@H]1c1ccccc1
inhibition at 5 µM [4]: 0%

SMILES: CC(=O)N1CCC[C@H](OCc2cc(C(F)(F)F)cc(C(F)(F)F)c2)[C@@H]1c1ccccc1
inhibition at 5 µM [4]: 0%

SMILES: NC(=O)CCCN1CCC[C@H](OCc2cc(C(F)(F)F)cc(C(F)(F)F)c2)[C@@H]1c1ccccc1
inhibition at 5 µM [4]: 98%

SMILES: CN(C)C(=O)CN1CCC[C@H](OCc2cc(C(F)(F)F)cc(C(F)(F)F)c2)[C@@H]1c1ccccc1
inhibition at 5 µM [4]: 0%

IC50 [3]: 4.1 nM
SMILES: FC(F)(F)c1cc(CO[C@H]2CCCN(Cc3ccccc3)[C@H]2c2ccccc2)cc(C(F)(F)F)c1

IC50 [3]: 26 nM
SMILES: COC(=O)CN1CCC[C@H](OCc2cc(C(F)(F)F)cc(C(F)(F)F)c2)[C@@H]1c1ccccc1

pKa [1]: 6.5
SMILES: NC(=O)CCN1CCC[C@H](OCc2cc(C(F)(F)F)cc(C(F)(F)F)c2)[C@@H]1c1ccccc1
inhibition at 5 µM [4]: 98%

IC50 (Substance-P receptor): 227 nM
SMILES: COc1ccccc1CN[C@H]1CCCN(CC(N)=O)[C@H]1c1ccccc1 (racemic)
